Patent US20250214991A1 (Oncopia Therapeutics, Inc. d/b/a/ SK Life Science Labs, priority 2022, published 2025)

Key:
CRBN/DDB1 = CRBN/DDB1 (Homo sapiens (Human), UniProt Q96SW2); assay: IC50 measurements for binding to CRBN/DDB1 (HTRF); settings: His tagged CRBN+DDB, Cy5-labeled Thalidomide probe, one hour
Summary of the method: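 HTRF competition binding with 2 nM His-tagged CRBN-DDB1 complex, 60 nM Cy5-thalidomide probe and 0.4 nM anti-His Tb cryptate in 50 mM HEPES pH 7.5, 1 mM TCEP, 0.01% Brij-35, 50 mM NaCl, 0.1% BSA. Read after 1 h at room temperature; IC50 from four-parameter dose-response fit.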

IKZF2 = IKZF2 (Homo sapiens (Human), UniProt Q96SW2+Q9UKS7); assay: In vitro IKZF2 HiBit Assay (HEK293T Flp-in-HiBiT cells); type: cell-based; settings: HEK293T Flp-in-HiBiT cells, 6 hrs incubation; for DC50: read-out: IKZF2 HiBit DC50; for Dmax: HEK-293T, read-out: IKZF2 HiBit Dmax (%)
Summary of the method: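 HEK293T Flp-in cells carrying an endogenous N-terminal HiBiT tag on IKZF2 were exposed to compound for 6 h at 0.1% DMSO. The dilution series was 11 doses at 3-fold, diluted from 1 mM. Nano-Glo HiBiT lytic luminescence, normalized to DMSO, gave DC50 for 50% degradation and Dmax across the concentration range, both reported in letter bins.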

IKZF1 = IKZF1 (Homo sapiens (Human), UniProt Q13422+Q96SW2); assay: In vitro IKZF1 HiBit Assay (HEK293T Flp-in-HiBiT-IKZF1 stable cell line); type: cell-based; settings: HEK293T Flp-in-HiBiT-IKZF1 stable cell line, 6 hrs incubation; for DC50: read-out: IKZF1 HiBit DC50; for Dmax: HEK-293T, read-out: IKZF1 HiBit Dmax (%)
Summary of the method: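 HEK293T Flp-in cells carrying N-terminal HiBiT-tagged IKZF1 were exposed to compound (0.1% DMSO) for 6 h at 3000 cells/well. HiBiT luminescence was read after lytic LgBiT detection. DC50 and Dmax were taken from DMSO-normalized dose-response curves.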

Sequence of IKZF1 (Q13422 whole entry): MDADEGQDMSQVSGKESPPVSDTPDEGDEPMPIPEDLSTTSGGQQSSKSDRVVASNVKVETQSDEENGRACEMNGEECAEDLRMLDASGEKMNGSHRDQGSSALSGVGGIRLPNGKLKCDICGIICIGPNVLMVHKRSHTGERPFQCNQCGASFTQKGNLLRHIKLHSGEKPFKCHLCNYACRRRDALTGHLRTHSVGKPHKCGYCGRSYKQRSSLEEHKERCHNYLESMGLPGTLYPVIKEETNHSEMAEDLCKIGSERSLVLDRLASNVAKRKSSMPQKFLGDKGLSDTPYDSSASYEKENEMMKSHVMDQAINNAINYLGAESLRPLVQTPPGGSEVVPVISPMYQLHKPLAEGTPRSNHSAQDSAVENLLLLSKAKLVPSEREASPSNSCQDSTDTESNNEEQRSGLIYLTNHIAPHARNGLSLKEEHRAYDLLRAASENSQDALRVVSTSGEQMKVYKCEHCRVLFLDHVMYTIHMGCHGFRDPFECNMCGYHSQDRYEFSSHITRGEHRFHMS
Sequence of IKZF1 (Q96SW2 whole entry): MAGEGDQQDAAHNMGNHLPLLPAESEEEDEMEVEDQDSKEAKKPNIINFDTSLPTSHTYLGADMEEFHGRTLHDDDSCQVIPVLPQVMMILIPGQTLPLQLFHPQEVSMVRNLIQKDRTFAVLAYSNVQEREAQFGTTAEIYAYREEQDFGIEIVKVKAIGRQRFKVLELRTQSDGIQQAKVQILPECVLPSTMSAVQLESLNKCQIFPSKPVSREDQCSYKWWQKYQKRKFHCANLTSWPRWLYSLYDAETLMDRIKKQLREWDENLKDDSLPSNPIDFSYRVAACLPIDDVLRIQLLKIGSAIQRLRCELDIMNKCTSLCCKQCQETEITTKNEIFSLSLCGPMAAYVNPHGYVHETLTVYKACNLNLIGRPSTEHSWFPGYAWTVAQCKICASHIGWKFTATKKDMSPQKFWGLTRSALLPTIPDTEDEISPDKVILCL
Sequence of IKZF1 (Q16531 2-1140 partner): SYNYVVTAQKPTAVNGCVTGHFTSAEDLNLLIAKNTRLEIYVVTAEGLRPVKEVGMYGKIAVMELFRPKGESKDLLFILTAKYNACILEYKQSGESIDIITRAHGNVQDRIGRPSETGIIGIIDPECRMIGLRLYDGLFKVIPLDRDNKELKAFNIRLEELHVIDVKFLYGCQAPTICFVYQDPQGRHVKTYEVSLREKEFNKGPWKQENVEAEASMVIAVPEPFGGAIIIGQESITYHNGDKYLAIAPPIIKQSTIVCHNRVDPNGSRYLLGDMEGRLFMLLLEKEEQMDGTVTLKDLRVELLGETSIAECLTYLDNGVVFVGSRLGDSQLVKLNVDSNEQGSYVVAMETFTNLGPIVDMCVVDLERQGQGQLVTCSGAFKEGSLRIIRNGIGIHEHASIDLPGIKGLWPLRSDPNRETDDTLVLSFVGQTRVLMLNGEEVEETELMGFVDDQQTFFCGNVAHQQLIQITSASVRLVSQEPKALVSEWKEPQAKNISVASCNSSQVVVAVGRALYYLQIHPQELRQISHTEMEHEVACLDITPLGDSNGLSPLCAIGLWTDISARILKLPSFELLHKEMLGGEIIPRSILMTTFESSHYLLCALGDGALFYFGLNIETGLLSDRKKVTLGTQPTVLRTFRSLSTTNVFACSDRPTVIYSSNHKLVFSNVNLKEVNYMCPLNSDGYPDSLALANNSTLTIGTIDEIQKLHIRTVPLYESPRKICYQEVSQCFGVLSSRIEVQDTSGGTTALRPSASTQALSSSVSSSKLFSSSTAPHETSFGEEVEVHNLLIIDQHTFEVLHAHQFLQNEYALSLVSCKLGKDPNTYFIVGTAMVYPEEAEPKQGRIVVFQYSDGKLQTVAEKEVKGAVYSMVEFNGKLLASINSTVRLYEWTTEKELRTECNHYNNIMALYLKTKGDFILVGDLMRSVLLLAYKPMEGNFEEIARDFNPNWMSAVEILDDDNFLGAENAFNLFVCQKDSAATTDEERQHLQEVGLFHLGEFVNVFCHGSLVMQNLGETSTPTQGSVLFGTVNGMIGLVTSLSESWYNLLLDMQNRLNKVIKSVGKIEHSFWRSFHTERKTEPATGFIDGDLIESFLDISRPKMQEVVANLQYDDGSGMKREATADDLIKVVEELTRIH
Sequence of IKZF2 (Q9UKS7 whole entry): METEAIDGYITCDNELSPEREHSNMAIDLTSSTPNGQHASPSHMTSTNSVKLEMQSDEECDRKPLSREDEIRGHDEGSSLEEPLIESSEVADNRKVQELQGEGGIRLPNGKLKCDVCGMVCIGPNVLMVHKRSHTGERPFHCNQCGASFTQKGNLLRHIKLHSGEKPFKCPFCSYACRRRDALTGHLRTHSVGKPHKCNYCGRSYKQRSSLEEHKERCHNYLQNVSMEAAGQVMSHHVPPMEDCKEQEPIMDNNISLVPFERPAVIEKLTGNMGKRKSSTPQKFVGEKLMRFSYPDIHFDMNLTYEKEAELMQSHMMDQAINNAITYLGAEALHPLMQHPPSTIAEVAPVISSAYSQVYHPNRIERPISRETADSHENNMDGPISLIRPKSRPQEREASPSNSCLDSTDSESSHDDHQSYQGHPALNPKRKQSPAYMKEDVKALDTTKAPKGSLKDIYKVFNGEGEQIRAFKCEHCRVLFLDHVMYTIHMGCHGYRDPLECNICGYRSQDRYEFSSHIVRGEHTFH
Sequence of IKZF2 (Q96SW2 whole entry): as the sequence (Q96SW2 whole entry) above
Sequence of IKZF2 (Q16531 2-1140 partner): as the sequence (Q16531 2-1140 partner) above
Sequence of CRBN/DDB1 (Q96SW2 whole entry, species assumed): as the sequence (Q96SW2 whole entry) above
Sequence of CRBN/DDB1 (Q16531 whole entry partner, species assumed): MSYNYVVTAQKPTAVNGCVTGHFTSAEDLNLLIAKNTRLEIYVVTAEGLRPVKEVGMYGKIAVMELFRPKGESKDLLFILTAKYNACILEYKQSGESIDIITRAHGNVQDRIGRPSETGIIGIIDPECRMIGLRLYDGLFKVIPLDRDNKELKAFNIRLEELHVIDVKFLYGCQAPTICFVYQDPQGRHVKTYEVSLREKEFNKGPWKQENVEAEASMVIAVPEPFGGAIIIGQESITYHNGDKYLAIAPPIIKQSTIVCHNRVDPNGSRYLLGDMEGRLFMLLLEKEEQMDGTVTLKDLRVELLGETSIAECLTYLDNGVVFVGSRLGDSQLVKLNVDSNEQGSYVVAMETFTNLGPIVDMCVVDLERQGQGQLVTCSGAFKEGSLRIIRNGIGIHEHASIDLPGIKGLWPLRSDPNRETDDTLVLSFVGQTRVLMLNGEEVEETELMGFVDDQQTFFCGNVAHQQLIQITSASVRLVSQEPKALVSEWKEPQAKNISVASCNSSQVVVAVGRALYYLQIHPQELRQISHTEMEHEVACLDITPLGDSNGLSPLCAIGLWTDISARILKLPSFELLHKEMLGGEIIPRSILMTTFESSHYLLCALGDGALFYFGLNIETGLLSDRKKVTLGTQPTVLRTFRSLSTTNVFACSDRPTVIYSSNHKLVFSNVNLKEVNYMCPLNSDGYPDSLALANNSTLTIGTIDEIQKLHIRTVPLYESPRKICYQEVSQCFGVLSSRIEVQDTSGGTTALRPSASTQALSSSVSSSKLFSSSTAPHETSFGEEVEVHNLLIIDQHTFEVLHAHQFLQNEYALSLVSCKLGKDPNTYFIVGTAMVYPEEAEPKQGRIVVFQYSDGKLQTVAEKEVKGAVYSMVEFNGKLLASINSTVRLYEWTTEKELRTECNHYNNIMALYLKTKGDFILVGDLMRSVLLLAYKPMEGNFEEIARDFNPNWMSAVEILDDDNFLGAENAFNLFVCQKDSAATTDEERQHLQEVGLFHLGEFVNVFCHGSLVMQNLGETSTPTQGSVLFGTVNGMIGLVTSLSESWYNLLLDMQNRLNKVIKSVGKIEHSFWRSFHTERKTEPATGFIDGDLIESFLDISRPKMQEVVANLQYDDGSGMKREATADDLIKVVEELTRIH

Structure (SMILES) | IC50 (CRBN/DDB1) [nM] | DC50 (IKZF2) [nM] | Dmax (IKZF2) [%] | DC50 (IKZF1) [nM] | Dmax (IKZF1) [%]
O=C1CCC(N2Cc3cc(-c4cc(CN5CCCC5)c5ccn(CCO)c5n4)ccc3C2=O)C(=O)N1 (stereo not shown) [Example 131, 3-(5-(1-(2-hydroxyethyl)-4-(pyrrolidin-1-ylmethyl)-1H-pyrrolo[2,3-b]pyridin-6-yl)-1-oxoisoindolin-2-yl) piperidine-2,6-dione] | 1000 to 5000 | 10 to 100 | 60 to 80 | > 10000 | < 20
O=C1CCC(N2Cc3cc(-c4cc(CN5CCCC5)c5c(n4)CCCC5)ccc3C2=O)C(=O)N1 (stereo not shown) [Example 79, 3-(1-oxo-5-(4-(pyrrolidin-1-ylmethyl)-5,6,7,8-tetrahydroquinolin-2-yl)isoindolin-2-yl) piperidine-2,6-dione] | 100 to 500 | < 1 | > 80 | > 10000 | 20 to 40
O=C1CCC(N2Cc3cc(-c4cc(CN5CC(O)C5)c5cc[nH]c5n4)ccc3C2=O)C(=O)N1 (stereo not shown) [Example 111, 3-(5-(4-((3-hydroxyazetidin-1-yl)methyl)-1H-pyrrolo[2,3-b]pyridin-6-yl)-1-oxoisoindolin-2-yl) piperidine-2,6-dione] | 100 to 500 | 10 to 100 | 60 to 80 | > 10000 | < 20
Cn1ccc2c(CN3CCC(O)C3)cc(-c3ccc4c(c3)CN(C3CCC(=O)NC3=O)C4=O)nc21 (stereo not shown) [Example 303, 3-(5-(4-((3-hydroxypyrrolidin-1-yl)methyl)-1-methyl-1H-pyrrolo[2,3-b]pyridin-6-yl)-1-oxoisoindolin-2-yl) piperidine-2,6-dione] | 1000 to 5000 | 1 to 10 | > 80 | 10 to 100 | 20 to 40
O=C1CCC(N2Cc3cc(-c4cc(CN5CCCC5)c5ncn(C6CS(=O)(=O)C6)c5n4)ccc3C2=O)C(=O)N1 (stereo not shown) [Example 225, 3-(5-(3-(1,1-dioxidothietan-3-yl)-7-(pyrrolidin-1-ylmethyl)-3H-imidazo[4,5-b]pyridin-5-yl)-1-oxoisoindolin-2-yl) piperidine-2,6-dione] | 500 to 1000 | < 1 | 20 to 40 | > 10000 | < 20
Cn1ccc2c(Cn3ccnc3)cc(-c3ccc4c(c3)CN(C3CCC(=O)NC3=O)C4=O)nc21 (stereo not shown) [Example 88, 3-(5-(4-((1H-imidazol-1-yl)methyl)-1-methyl-1H-pyrrolo[2,3-b]pyridin-6-yl)-1-oxoisoindolin-2-yl) piperidine-2,6-dione] | 1000 to 5000 | 10 to 100 | > 80 | > 10000 | < 20
Cn1ccc2c(CN3Cc4ccccc4C3)cc(-c3ccc4c(c3)CN(C3CCC(=O)NC3=O)C4=O)nc21 (stereo not shown) [Example 67, 3-(5-(4-(isoindolin-2-ylmethyl)-1-methyl-1H-pyrrolo[2,3-b]pyridin-6-yl)-1-oxoisoindolin-2-yl) piperidine-2,6-dione] | 500 to 1000 | 1 to 10 | 60 to 80 | > 10000 | 20 to 40
O=C1CCC(N2Cc3cc(-c4cc(CN5CC(O)C5)c5ccn(C6COC6)c5n4)ccc3C2=O)C(=O)N1 (stereo not shown) [Example 160, 3-(5-(4-((3-hydroxyazetidin-1-yl)methyl)-1-(oxetan-3-yl)-1H-pyrrolo[2,3-b]pyridin-6-yl)-1-oxoisoindolin-2-yl) piperidine-2,6-dione] | < 100 | 10 to 100 | 40 to 60 | > 10000 | < 20
COCC1CCN(Cc2cc(-c3ccc4c(c3)CN(C3CCC(=O)NC3=O)C4=O)nc3c2ccn3C)C1 (stereo not shown) [Example 109, 3-(5-(4-((3-(methoxymethyl)pyrrolidin-1-yl)methyl)-1-methyl-1H-pyrrolo[2,3-b]pyridin-6-yl)-1-oxoisoindolin-2-yl) piperidine-2,6-dione] | 100 to 500 | < 1 | > 80 | 1 to 10 | 20 to 40
Cc1nc2nc(-c3ccc4c(c3)CN(C3CCC(=O)NC3=O)C4=O)cc(CN3CCCC3)c2o1 (stereo not shown) [Example 194, 3-(5-(2-methyl-7-(pyrrolidin-1-ylmethyl)oxazolo[4,5-b]pyridin-5-yl)-1-oxoisoindolin-2-yl) piperidine-2,6-dione] | 1000 to 5000 | 1 to 10 | > 80 | > 10000 | < 20
Cn1ccc2c(CN3CCC4(CC3)COC4)cc(-c3ccc4c(c3)CN(C3CCC(=O)NC3=O)C4=O)nc21 (stereo not shown) [Example 73, 3-(5-(4-((2-oxa-7-azaspiro[3.5]nonan-7-yl)methyl)-1-methyl-1H-pyrrolo[2,3-b]pyridin-6-yl)-1-oxoisoindolin-2-yl) piperidine-2,6-dione] | 100 to 500 | 1 to 10 | > 80 | > 10000 | 20 to 40
Cn1ccc2c(CN3CCCC3(C)C)cc(-c3ccc4c(c3)CN(C3CCC(=O)NC3=O)C4=O)nc21 (stereo not shown) [Example 113, 3-(5-(4-((2,2-dimethylpyrrolidin-1-yl)methyl)-1-methyl-1H-pyrrolo[2,3-b]pyridin-6-yl)-1-oxoisoindolin-2-yl) piperidine-2,6-dione] | 1000 to 5000 | < 1 | 60 to 80 | 10 to 100 | 20 to 40
CC(C)Oc1n[nH]c2c(CN3CCCC3)cc(-c3ccc4c(c3)CN(C3CCC(=O)NC3=O)C4=O)nc12 (stereo not shown) [Example 238, 3-(5-(3-isopropoxy-7-(pyrrolidin-1-ylmethyl)-1H-pyrazolo[4,3-b]pyridin-5-yl)-1-oxoisoindolin-2-yl) piperidine-2,6-dione] | 1000 to 5000 | < 1 | 60 to 80 | > 10000 | < 20
CCn1ccc2c(CN3CCC3)cc(-c3ccc4c(c3)CN(C3CCC(=O)NC3=O)C4=O)nc21 (stereo not shown) [Example 98, 3-(5-(4-(azetidin-1-ylmethyl)-1-ethyl-1H-pyrrolo[2,3-b]pyridin-6-yl)-1-oxoisoindolin-2-yl) piperidine-2,6-dione] | < 100 | 1 to 10 | > 80 | > 10000 | < 20
Cn1ccc2c(C3CCCCN3)cc(-c3ccc4c(c3)CN([C@H]3CCC(=O)NC3=O)C4=O)nc21 (stereo partly drawn) [Example 231, (3S)-3-(5-(1-methyl-4-(piperidin-2-yl)-1H-pyrrolo[2,3-b]pyridin-6-yl)-1-oxoisoindolin-2-yl) piperidine-2,6-dione] | 100 to 500 | 10 to 100 | 40 to 60 | 1 to 10 | 20 to 40
Cn1ccc2c(CN3CCC4(CC3)CC4)cc(-c3ccc4c(c3)CN(C3CCC(=O)NC3=O)C4=O)nc21 (stereo not shown) [Example 64, 3-(5-(4-((6-azaspiro[2.5]octan-6-yl)methyl)-1-methyl-1H-pyrrolo[2,3-b]pyridin-6-yl)-1-oxoisoindolin-2-yl) piperidine-2,6-dione] | 100 to 500 | < 1 | > 80 | > 10000 | 20 to 40
Cc1nc2c(CN3CCCC3)cc(-c3ccc4c(c3)CN(C3CCC(=O)NC3=O)C4=O)nc2o1 (stereo not shown) [Example 197, 3-(5-(2-methyl-7-(pyrrolidin-1-ylmethyl)oxazolo [5,4-b]pyridin-5-yl)-1-oxoisoindolin-2-yl) piperidine-2,6-dione] | 500 to 1000 | 1 to 10 | 60 to 80 | > 10000 | < 20
CN1C2CCC1CN(Cc1cc(-c3ccc4c(c3)CN(C3CCC(=O)NC3=O)C4=O)nc3c1ccn3C)C2 (stereo not shown) [Example 311, 3-(5-(1-methyl-4-((8-methyl-3,8-diazabicyclo[3.2.1]octan-3-yl)methyl)-1H-pyrrolo[2,3-b]pyridin-6-yl)-1-oxoisoindolin-2-yl) piperidine-2,6-dione] | 500 to 1000 | 1 to 10 | 60 to 80 | > 10000 | < 20
Cn1ccc2c(CN3CCCC3)nc(-c3ccc4c(c3)CN(C3CCC(=O)NC3=O)C4=O)nc21 (stereo not shown) [Example 184, 3-(5-(7-methyl-4-(pyrrolidin-1-ylmethyl)-7H-pyrrolo[2,3-d]pyrimidin-2-yl)-1-oxoisoindolin-2-yl) piperidine-2,6-dione] | 500 to 1000 | 1 to 10 | 60 to 80 | 1000 to 10000 | 20 to 40
O=C1CCC(N2Cc3cc(-c4cc(CN5CCCC5)c5ccn(CCOCc6ccccc6)c5n4)ccc3C2=O)C(=O)N1 (stereo not shown) [Example 130, 3-(5-(1-(2-(benzyloxy)ethyl)-4-(pyrrolidin-1-ylmethyl)-1H-pyrrolo[2,3-b]pyridin-6-yl)-1-oxoisoindolin-2-yl) piperidine-2,6-dione] | 100 to 500 | 1 to 10 | 40 to 60 | > 10000 | < 20
